Legend:
Type in all cases: biochemical
FGFR2 = target: T1, FGFR2 (Homo sapiens, UniProt P21802); assay: FGFR Enzymatic Assay (FRET peptide phosphorylation), FGFR2; details: FGFR2 0.01 nM, ATP 100 μM
T1 construct: purchased Millipore or Invitrogen
Procedure: (§1) The inhibitor potency of the Example compounds was measured in an enzyme assay that measures peptide phosphorylation using FRET measurements to detect product formation. Inhibitors were serially diluted in DMSO and a volume of 0.5 μL was transferred to the wells of a 384-well plate. For FGFR3, a 10 μL volume of FGFR3 enzyme (Millipore) diluted in assay buffer (50 mM HEPES, 10 mM MgCl2, 1 mM EGTA, 0.01% Tween-20, 5 mM DTT, pH 7.5) was added to the plate and pre-incubated for 5-10 minutes. Appropriate controls (enzyme blank and enzyme with no inhibitor) were included on the plate. The assay was initiated by the addition of a 10 μL solution containing biotinylated EQEDEPEGDYFEWLE peptide substrate (SEQ ID NO: 1) and ATP (final concentrations of 500 nM and 140 μM respectively) in assay buffer to the wells. The plate was incubated at 25° C. for 1 hr. The reactions were ended with the addition of 10 μL/well of quench solution (50 mM Tris, 150 mM NaCl, 0.5 mg/mL BSA, pH˜7.8, 30 mM EDTA with Perkin Elmer Lance Detection Reagents at 3.75 nM Eu-antibody PY20 and 180 nM APC-Streptavidin). The plate was allowed to equilibrate for 1 hour before scanning the wells on a PheraStar plate reader (BMG Labtech). The enzymes were purchased from Millipore or Invitrogen.
(§2) FGFR1 and FGFR2 were measured under equivalent conditions with the following changes in enzyme and ATP concentrations: FGFR1, 0.02 nM and 210 μM, respectively and FGFR2, 0.01 nM and 100 μM, respectively.
(§3) GraphPad prism3 was used to analyze the data. The IC50 values were derived by fitting the data to the equation for a sigmoidal dose-response with a variable slope. Y=Bottom+(Top−Bottom)/(1+10^((Log IC50−X)*HillSlope)) where X is the logarithm of concentration and Y is the response.

FGFR1 = target: T2, FGFR1 (Homo sapiens, UniProt P11362); assay: FGFR Enzymatic Assay (FRET peptide phosphorylation), FGFR1; details: FGFR1 0.02 nM, ATP 210 μM
T2 construct: purchased Millipore or Invitrogen
T2 sequence (P11362 22-822): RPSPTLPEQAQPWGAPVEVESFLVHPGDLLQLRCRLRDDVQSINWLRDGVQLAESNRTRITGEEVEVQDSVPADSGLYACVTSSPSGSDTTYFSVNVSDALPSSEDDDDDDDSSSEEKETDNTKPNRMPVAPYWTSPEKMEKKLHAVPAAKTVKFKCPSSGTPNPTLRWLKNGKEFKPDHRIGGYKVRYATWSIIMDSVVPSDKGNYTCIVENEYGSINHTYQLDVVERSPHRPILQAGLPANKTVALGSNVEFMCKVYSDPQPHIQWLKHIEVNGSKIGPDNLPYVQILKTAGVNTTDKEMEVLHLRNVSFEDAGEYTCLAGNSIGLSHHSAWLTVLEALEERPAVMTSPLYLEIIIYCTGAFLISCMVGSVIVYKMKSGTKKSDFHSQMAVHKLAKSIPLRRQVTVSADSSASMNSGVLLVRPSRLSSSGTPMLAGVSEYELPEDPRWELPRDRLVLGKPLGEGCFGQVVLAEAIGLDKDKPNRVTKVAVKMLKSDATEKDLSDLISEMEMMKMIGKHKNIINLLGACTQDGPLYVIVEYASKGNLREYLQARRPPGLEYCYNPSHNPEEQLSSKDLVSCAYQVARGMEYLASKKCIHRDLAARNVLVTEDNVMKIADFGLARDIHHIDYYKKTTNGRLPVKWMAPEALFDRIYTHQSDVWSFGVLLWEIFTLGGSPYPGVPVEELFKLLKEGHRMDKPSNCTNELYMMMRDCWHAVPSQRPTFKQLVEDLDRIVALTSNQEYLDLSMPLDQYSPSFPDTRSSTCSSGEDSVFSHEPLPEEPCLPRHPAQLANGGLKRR
Procedure: as §1, §2, §3

FGFR3 = target: T3, FGFR3 (Homo sapiens, UniProt P22607); assay: FGFR Enzymatic Assay (FRET peptide phosphorylation), FGFR3; details: ATP 140 μM, 25° C. for 1 hr
T3 construct: purchased Millipore
T3 sequence (P22607 23-806): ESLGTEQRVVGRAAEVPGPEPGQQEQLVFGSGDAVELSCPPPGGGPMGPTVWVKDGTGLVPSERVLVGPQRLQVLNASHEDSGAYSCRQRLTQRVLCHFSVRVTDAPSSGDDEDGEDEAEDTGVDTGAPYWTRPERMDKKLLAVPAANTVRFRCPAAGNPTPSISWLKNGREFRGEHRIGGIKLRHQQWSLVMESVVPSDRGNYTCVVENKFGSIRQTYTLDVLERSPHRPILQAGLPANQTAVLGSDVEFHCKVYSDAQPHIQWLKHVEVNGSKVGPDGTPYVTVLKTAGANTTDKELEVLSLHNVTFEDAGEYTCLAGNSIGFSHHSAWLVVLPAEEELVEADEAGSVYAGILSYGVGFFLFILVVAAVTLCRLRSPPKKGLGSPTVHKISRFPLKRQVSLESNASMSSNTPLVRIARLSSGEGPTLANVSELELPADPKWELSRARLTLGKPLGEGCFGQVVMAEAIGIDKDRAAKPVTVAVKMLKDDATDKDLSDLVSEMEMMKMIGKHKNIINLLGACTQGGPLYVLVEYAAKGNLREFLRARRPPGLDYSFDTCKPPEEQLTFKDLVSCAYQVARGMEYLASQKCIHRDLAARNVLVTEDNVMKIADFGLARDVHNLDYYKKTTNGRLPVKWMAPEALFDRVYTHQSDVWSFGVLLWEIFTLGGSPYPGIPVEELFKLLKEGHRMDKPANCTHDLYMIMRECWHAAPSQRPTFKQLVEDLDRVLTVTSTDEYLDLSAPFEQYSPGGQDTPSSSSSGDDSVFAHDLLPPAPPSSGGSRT
Procedure: as §1, §3

T1 sequence (P21802 22-821): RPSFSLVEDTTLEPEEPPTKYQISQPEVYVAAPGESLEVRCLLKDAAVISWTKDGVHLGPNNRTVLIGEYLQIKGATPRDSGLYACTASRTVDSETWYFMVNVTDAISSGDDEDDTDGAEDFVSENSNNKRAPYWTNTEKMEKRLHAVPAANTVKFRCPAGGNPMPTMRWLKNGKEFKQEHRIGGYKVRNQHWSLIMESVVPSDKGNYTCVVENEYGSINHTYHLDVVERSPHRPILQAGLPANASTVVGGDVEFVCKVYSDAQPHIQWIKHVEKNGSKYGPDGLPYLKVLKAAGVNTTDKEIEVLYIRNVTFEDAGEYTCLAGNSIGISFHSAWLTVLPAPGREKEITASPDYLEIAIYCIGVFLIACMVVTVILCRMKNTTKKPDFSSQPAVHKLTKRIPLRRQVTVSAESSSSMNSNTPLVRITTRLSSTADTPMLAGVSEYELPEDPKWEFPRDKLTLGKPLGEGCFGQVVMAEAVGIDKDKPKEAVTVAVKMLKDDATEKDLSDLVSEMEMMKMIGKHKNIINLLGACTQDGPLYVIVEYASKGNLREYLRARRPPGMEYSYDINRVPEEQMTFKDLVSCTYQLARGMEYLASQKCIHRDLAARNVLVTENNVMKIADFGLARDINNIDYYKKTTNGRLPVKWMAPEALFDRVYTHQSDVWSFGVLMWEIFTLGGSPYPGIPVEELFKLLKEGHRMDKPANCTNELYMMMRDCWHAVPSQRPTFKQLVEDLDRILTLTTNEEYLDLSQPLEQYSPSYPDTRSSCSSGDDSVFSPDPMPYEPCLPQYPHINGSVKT

IC50 (FGFR2) [nM] | IC50 (FGFR1) [nM] | IC50 (FGFR3) [nM] | Compound
< 100 | < 100 | < 100 | COc1cc(OC)c(F)c(-c2ncc3c(-c4ccc5c(c4)CC(C(=O)N(C)C)O5)n[nH]c3n2)c1F (single isomer, unassigned) [Example 4, 5-[6-(2,6-Difluoro-3,5-dimethoxyphenyl)-1H-pyrazolo[3,4-d]pyrimidin-3-yl]-N,N-dimethyl-2,3-dihydro-1-benzofuran-2-carboxamide]
< 100 | < 100 | < 100 | COc1cc(OC)c(F)c(-c2ncc3c(-c4ccc5c(c4)CC(C(=O)N(C)C)O5)n[nH]c3n2)c1F (single isomer, unassigned) [Example 5, 5-[6-(2,6-Difluoro-3,5-dimethoxyphenyl)-1H-pyrazolo[3,4-d]pyrimidin-3-yl]-N,N-dimethyl-2,3-dihydro-1-benzofuran-2-carboxamide]
< 100 | < 100 | < 100 | CCN1CCc2cc(-c3n[nH]c4nc(-c5c(Cl)c(OC)cc(OC)c5Cl)ncc34)ccc2C1=O [Example 10, 6-[6-(2,6-Dichloro-3,5-dimethoxyphenyl)-1H-pyrazolo[3,4-d]pyrimidin-3-yl]-2-ethyl-3,4-dihydroisoquinolin-1(2H)-one]
< 100 | < 100 | < 100 | COc1cc(OC)c(Cl)c(-c2ncc3c(-c4ccc5c(c4)CCN(C(C)C)C5=O)n[nH]c3n2)c1Cl [Example 11, 6-[6-(2,6-Dichloro-3,5-dimethoxyphenyl)-1H-pyrazolo[3,4-d]pyrimidin-3-yl]-2-isopropyl-3,4-dihydroisoquinolin-1(2H)-one]
< 100 | < 100 | < 100 | COc1cc(OC)c(F)c(-c2ncc3c(-c4ccc5c(c4)CCNC5=O)n[nH]c3n2)c1F [Example 12, 6-[6-(2,6-Difluoro-3,5-dimethoxyphenyl)-1H-pyrazolo[3,4-d]pyrimidin-3-yl]-3,4-dihydroisoquinolin-1(2H)-one]
< 100 | < 100 | < 100 | COc1cc(OC)c(F)c(-c2ncc3c(-c4ccc5c(c4)CCN(S(C)(=O)=O)C5)n[nH]c3n2)c1F [Example 13, 6-[6-(2,6-Difluoro-3,5-dimethoxyphenyl)-1H-pyrazolo[3,4-d]pyrimidin-3-yl]-2-(methylsulfonyl)-1,2,3,4-tetrahydroisoquinoline]
< 100 | < 100 | < 100 | COc1cc(OC)c(F)c(-c2ncc3c(-c4ccc5c(c4)CN([C@H]4CC[C@@H](O)CC4)C5=O)n[nH]c3n2)c1F [Example 16, 5-[6-(2,6-Difluoro-3,5-dimethoxyphenyl)-1H-pyrazolo[3,4-d]pyrimidin-3-yl]-2-(cis-4-hydroxycyclohexyl)isoindolin-1-one]

Further lines, the compound ahead of its results:

Compound | IC50 (FGFR2) [nM] | IC50 (FGFR1) [nM] | IC50 (FGFR3) [nM]
COc1cc(OC)c(F)c(-c2cc3[nH]nc(-c4ccc5c(c4)CC(C(=O)N(C)C)O5)c3cn2)c1F (single isomer, unassigned) [Example 83, 5-[6-(2,6-Difluoro-3,5-dimethoxyphenyl)-1H-pyrazolo[4,3-c]pyridin-3-yl]-N,N-dimethyl-2,3-dihydro-1-benzofuran-2-carboxamide] | < 100 | < 100 | < 100
COc1cc(OC)c(F)c(-c2cc3[nH]nc(-c4ccc5c(c4)CC(C(=O)N(C)C)O5)c3cn2)c1F (single isomer, unassigned) [Example 84, 5-[6-(2,6-Difluoro-3,5-dimethoxyphenyl)-1H-pyrazolo[4,3-c]pyridin-3-yl]-N,N-dimethyl-2,3-dihydro-1-benzofuran-2-carboxamide] | < 100 | < 100 | < 100
COc1cc(OC)c(Cl)c(-c2ncc3c(-c4ccc5c(c4)CC(C(=O)N(C)C)O5)n[nH]c3n2)c1Cl (stereo not drawn) [Example 1, 5-[6-(2,6-Dichloro-3,5-dimethoxyphenyl)-1H-pyrazolo[3,4-d]pyrimidin-3-yl]-N,N-dimethyl-2,3-dihydro-1-benzofuran-2-carboxamide] | < 100 | < 100 | < 100
COc1cc(OC)c(Cl)c(-c2ncc3c(-c4ccc5c(c4)CCC(C(=O)N(C)C)O5)n[nH]c3n2)c1Cl (stereo not drawn) [Example 2, 6-[6-(2,6-Dichloro-3,5-dimethoxyphenyl)-1H-pyrazolo[3,4-d]pyrimidin-3-yl]-N,N-dimethylchromane-2-carboxamide] | < 100 | < 100 | < 100
COc1cc(OC)c(F)c(-c2ncc3c(-c4ccc5c(c4)CC(C(=O)N(C)C)O5)n[nH]c3n2)c1F (stereo not drawn) [Example 3, 5-[6-(2,6-Difluoro-3,5-dimethoxyphenyl)-1H-pyrazolo[3,4-d]pyrimidin-3-yl]-N,N-dimethyl-2,3-dihydro-1-benzofuran-2-carboxamide] | < 100 | < 100 | < 100
COc1cc(OC)c(F)c(-c2ncc3c(-c4ccc5c(c4)CCC(C(=O)N(C)C)O5)n[nH]c3n2)c1F (stereo not drawn) [Example 6, 6-[6-(2,6-Difluoro-3,5-dimethoxyphenyl)-1H-pyrazolo[3,4-d]pyrimidin-3-yl]-N,N-dimethylchromane-2-carboxamide] | < 100 | < 100 | < 100
COc1cc(OC)c(F)c(-c2ncc3c(-c4ccc5c(c4)CC(C(=O)N4CCN(C)CC4)O5)n[nH]c3n2)c1F (stereo not drawn) [Example 7, 6-(2,6-Difluoro-3,5-dimethoxyphenyl)-3-{2-[(4-methylpiperazin-1-yl)carbonyl]-2,3-dihydro-1-benzofuran-5-yl}-1H-pyrazolo[3,4-d]pyrimidine] | < 100 | < 100 | < 100
COc1cc(OC)c(Cl)c(-c2ncc3c(-c4ccc5c(c4)CCNC5=O)n[nH]c3n2)c1Cl [Example 8, 6-[6-(2,6-Dichloro-3,5-dimethoxyphenyl)-1H-pyrazolo[3,4-d]pyrimidin-3-yl]-3,4-dihydroisoquinolin-1(2H)-one] | < 100 | < 100 | < 100
COc1cc(OC)c(Cl)c(-c2ncc3c(-c4ccc5c(c4)CCN(C)C5=O)n[nH]c3n2)c1Cl [Example 9, 6-[6-(2,6-Dichloro-3,5-dimethoxyphenyl)-1H-pyrazolo[3,4-d]pyrimidin-3-yl]-2-methyl-3,4-dihydroisoquinolin-1(2H)-one] | < 100 | < 100 | < 100
COc1ccc(C#Cc2n[nH]c3nc(-c4c(F)c(OC)cc(OC)c4F)ncc23)cc1 [Example 14, 6-(2,6-Difluoro-3,5-dimethoxyphenyl)-3-[(4-methoxyphenyl)ethynyl]-1H-pyrazolo[3,4-d]pyrimidine] | < 100 | < 100 | < 100
COc1cc(OC)c(F)c(-c2ncc3c(-c4ccc5c(c4)CN([C@H]4CC[C@H](O)CC4)C5=O)n[nH]c3n2)c1F [Example 15, 5-[6-(2,6-Difluoro-3,5-dimethoxyphenyl)-1H-pyrazolo[3,4-d]pyrimidin-3-yl]-2-(trans-4-hydroxycyclohexyl)isoindolin-1-one] | < 100 | < 100 | < 100
COc1cc(OC)c(F)c(-c2ncc3c(-c4ccc(N5CCN(C)CC5)cc4)n[nH]c3n2)c1F [Example 17, 6-(2,6-Difluoro-3,5-dimethoxyphenyl)-3-[4-(4-methylpiperazin-1-yl)phenyl]-1H-pyrazolo[3,4-d]pyrimidine] | < 100 | < 100 | < 100

Reference: patent US9266892B2, “Fused pyrazoles as FGFR inhibitors” (Incyte Corporation, priority 2012, dated 2016)
